{"source": "paper PMC11530827", "about": "“Characterization of a cytochrome P450 that catalyzes the O-demethylation of lignin-derived benzoates” (The Journal of Biological Chemistry, 2024)", "key": {"PbdA S87A/S237A": {"molecular_target": "T1, PbdA S87A/S237A (Rhodococcus jostii, UniProt Q0SCI3, S235A/S85A)", "T1 construct": "hexaHis (N, cleaved yes); made in house; host or cells: PbdA variant: E. coli BL-21 λ (DE3); PbdB: Rhodococcus jostii RHA1", "T1 sequence (Q0SCI3 entry or part of it S85A/S235A)": "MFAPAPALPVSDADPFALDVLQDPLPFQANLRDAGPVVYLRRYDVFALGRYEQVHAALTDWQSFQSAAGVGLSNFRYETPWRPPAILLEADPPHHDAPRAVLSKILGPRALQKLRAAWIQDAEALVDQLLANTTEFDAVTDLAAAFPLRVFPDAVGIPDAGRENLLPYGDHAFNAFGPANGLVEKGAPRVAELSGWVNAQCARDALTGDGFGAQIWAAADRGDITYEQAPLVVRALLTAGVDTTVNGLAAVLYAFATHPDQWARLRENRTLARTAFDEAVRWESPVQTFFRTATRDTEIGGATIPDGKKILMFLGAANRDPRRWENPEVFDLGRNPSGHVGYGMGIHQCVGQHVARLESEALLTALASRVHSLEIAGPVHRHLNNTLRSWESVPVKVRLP", "test": "Activity and coupling assay of PbdA S87A/S237A variant with PbdB", "format": "biochemical, Rhodococcus jostii RHA1", "experimental": "(§1) For activity measurements 0.25 to 1 μM of PbdA and PbdB were combined in a 200 μl cuvette in 20 mM Mops, pH 7.2 with substrate diluted in the same buffer. NADH was added to 350 μM to initiate the reaction. For HPLC analysis, enzymatic reactions were acidified by adding acetic acid to 10% final concentration, centrifuged (16,000×g for 10 min), and filtered through a 0.2 μm polytetrafluoroethylene membrane. Samples were run over a Luna 5 μm C18(2) 100 Å 150 × 3 mm column (Phenomenex) at 0.7 ml min^−1 by a Waters 2695 separation HPLC module. Samples were eluted with a 16.8 ml linear gradient from 1% methanol plus 0.1% formic acid in water to 100% methanol plus 0.1% formic acid and monitored at 280 nm with a Waters 2996 photodiode array detector. Concentrations were determined by interpolation on a standard curve of 0 to 1 mM of authentic standard. NADH concentration was measured by absorbance at 340 nm, ε = 6.22 mM^-1 cm^-1. Coupling was calculated from the ratio of rate of aromatic turnover, as determined by HPLC, and the rate of NADH oxidation, determined spectroscopically. Buffer ionic strength was adjusted by addition of NaCl, as appropriate. Apparent steady-state kinetic parameters were calculated by fitting Michaelis–Menten equations to initial velocity of reactions at various concentrations of aromatic substrate (LEONORA).\n(§2) ^aExperiments were performed using air-saturated MOPS (I = 0.1 M), pH 7.2, at 25 °C. The rate of aromatic substrate turnover was based on the appearance of O-demethylated product. Standard deviation is shown in parentheses."}, "PbdA R84M [1]": {"molecular_target": "T2, PbdA R84M (Rhodococcus jostii, UniProt Q0SCI3, R82M)", "T2 construct": "hexaHis (N, cleaved yes); made in house; host or cells: PbdA variant: E. coli BL-21 λ (DE3); PbdB: Rhodococcus jostii RHA1", "T2 sequence (Q0SCI3 entry or part of it R82M)": "as the sequence (Q0SCI3 entry or part of it S85A/S235A) above, with R82M, A85S, A235S counted along it", "test": "Substrate binding to PbdA R84M variant by spectral titration", "parameters": "species or system Rhodococcus jostii RHA1", "experimental": "(§3) UV-visible spectroscopy was conducted with a Cary 60 spectrophotometer equipped with a thermostatted cuvette holder at 25 °C. Scans of purified proteins diluted in 20 mM Mops, I = 0.1 M, pH 7.2 were taken between 250 and 700 nm. Heme concentration was calculated as described previously ([35]). Carbon monoxide binding was determined by reduction of PbdA diluted in 20 mM Mops, I = 0.1 M, pH 7.2 as above by a few grains of […]. CO was bubbled into the reduced enzyme for approximately 60 s at a rate of one bubble per second. Dissociation constants (Kd) were determined by titration of ligands diluted into enzyme buffer from 1 M stocks prepared in dimethyl sulfoxide into PbdA diluted in 20 mM Mops, I = 0.1 M, pH 7.2. Spectra take upon addition of substrate were subtracted from the spectrum of the enzyme, and peak-to-trough distance was plotted by ligand concentration. Kd values were determined by fitting a hyperbolic equation to the data as described previously ([23], [36]). The proportion of high-spin heme iron was determined using the approximate peak-to-trough extinction coefficient (ε ≈ 100 mM^−1 cm^−1) ([36])."}, "PbdA R84M [2]": {"molecular_target": "T2, PbdA R84M", "test": "Activity and coupling assay of PbdA R84M variant with PbdB", "format": "biochemical, Rhodococcus jostii RHA1", "experimental": "as §1, §2"}, "PbdA": {"molecular_target": "T3, PbdA (Rhodococcus jostii, UniProt Q0SCI3)", "T3 sequence (Q0SCI3 1-400)": "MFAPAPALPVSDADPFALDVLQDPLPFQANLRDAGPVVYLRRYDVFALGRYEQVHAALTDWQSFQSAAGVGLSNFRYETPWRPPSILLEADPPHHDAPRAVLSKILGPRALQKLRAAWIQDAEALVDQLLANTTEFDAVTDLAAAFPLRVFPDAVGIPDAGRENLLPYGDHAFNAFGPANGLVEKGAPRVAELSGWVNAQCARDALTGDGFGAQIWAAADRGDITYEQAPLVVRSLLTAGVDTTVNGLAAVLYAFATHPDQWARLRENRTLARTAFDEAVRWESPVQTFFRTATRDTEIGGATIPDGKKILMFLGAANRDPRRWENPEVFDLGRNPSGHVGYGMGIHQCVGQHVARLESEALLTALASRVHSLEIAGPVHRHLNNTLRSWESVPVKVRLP", "test": "Substrate binding to PbdA (WT) by type I spectral shift titration", "parameters": "hexaHis (N, cleaved yes); made in house; host or cells: PbdA: E. coli BL-21 λ (DE3); PbdB: Rhodococcus jostii RHA1", "conditions": "WT PbdA", "experimental": "The affinity of PbdA for various LDACs was measured by the type I spectral shift upon titration of aromatic compound (Fig. 2). This shift occurs as the compound displaces a water coordinated to the heme iron, initiating a spin state transition in the latter from a low spin, hexacoordinate, to a high spin, pentacoordinate form.\nFigure 2 Substrate binding of PbdA. A, difference spectra of PbdA titrated with 1 to 50 μM p-MBA from the substrate-free enzyme. Darker colors indicate higher concentration of p-MBA. Spectra were collected after each addition of substrate to 1 μM enzyme in 20 mM Mops, I = 0.1 M, pH 7.2. B, binding isotherm of PbdA and p-MBA. The fitted curve represents a simple hyperbola. p-MBA, para-methoxybenzoate.\nas §3"}, "PbdA S237A [3]": {"molecular_target": "T4, PbdA S237A (Rhodococcus jostii, UniProt Q0SCI3, S235A)", "T4 construct": "hexaHis (N, cleaved yes); made in house; host or cells: PbdA variant: E. coli BL-21 λ (DE3); PbdB: Rhodococcus jostii RHA1", "T4 sequence (Q0SCI3 entry or part of it S235A)": "as the sequence (Q0SCI3 entry or part of it S85A/S235A) above, with A85S counted along it", "test": "Substrate binding to PbdA S237A variant by spectral titration", "parameters": "species or system Rhodococcus jostii RHA1", "experimental": "as §3"}, "PbdA S87A [4]": {"molecular_target": "T5, PbdA S87A (Rhodococcus jostii, UniProt Q0SCI3, S85A)", "T5 construct": "hexaHis (N, cleaved yes); made in house; host or cells: PbdA variant: E. coli BL-21 λ (DE3); PbdB: Rhodococcus jostii RHA1", "T5 sequence (Q0SCI3 entry or part of it S85A)": "as the sequence (Q0SCI3 entry or part of it S85A/S235A) above, with A235S counted along it", "test": "Activity and coupling assay of PbdA S87A variant with PbdB", "format": "biochemical, Rhodococcus jostii RHA1", "experimental": "as §1, §2"}, "PbdA S87A [5]": {"molecular_target": "T5, PbdA S87A", "test": "Substrate binding to PbdA S87A variant by spectral titration", "parameters": "species or system Rhodococcus jostii RHA1", "experimental": "as §3"}, "PbdA S237A [6]": {"molecular_target": "T4, PbdA S237A", "test": "Activity and coupling assay of PbdA S237A variant with PbdB", "format": "biochemical, Rhodococcus jostii RHA1", "experimental": "as §1, §2"}, "[7]": {"conditions": "air-saturated MOPS (I = 0.1 M), pH 7.2, 25 °C"}, "[8]": {"conditions": "appearance of O-demethylated product"}}}
{"compound": "COc1ccc(C(=O)O)cc1", "note": "[p-MBA, p-methoxybenzoate]", "values": [{"measurement": "Coupling", "setting": "PbdA S87A/S237A", "result": "40 (2) %"}, {"measurement": "Specific activity", "setting": "PbdA S87A/S237A; O-demethylation", "result": "180 (10) U μg P450^-1"}, {"measurement": "NADH depletion rate", "setting": "PbdA S87A/S237A; [7]", "result": "400 (30) U mg P450^-1"}, {"measurement": "Rate of Aromatic turnover", "setting": "PbdA S87A/S237A; [8]", "result": "170 (10) U mg P450^-1"}, {"measurement": "Kd", "setting": "PbdA R84M [1]", "result": 36, "unit": "µM"}, {"measurement": "ΔG°", "setting": "PbdA R84M [1]; R84M variant, binding energy", "result": -6.1, "unit": "kcal/mol"}, {"measurement": "ΔΔG°", "setting": "PbdA R84M [1]; R84M variant, comparison of ΔG° of variant to wild type", "result": 1.3, "unit": "kcal/mol"}, {"measurement": "Coupling", "setting": "PbdA R84M [2]", "result": "70 (9) %"}, {"measurement": "Specific activity", "setting": "PbdA R84M [2]; O-demethylation", "result": "1100 (200) U μg P450^-1"}, {"measurement": "NADH depletion rate", "setting": "PbdA R84M [2]; [7]", "result": "1700 (200) U mg P450^-1"}, {"measurement": "Rate of Aromatic turnover", "setting": "PbdA R84M [2]; [8]", "result": "1100 (200) U mg P450^-1"}, {"measurement": "Kd", "setting": "PbdA; 20 mM Mops, I = 0.1 M, pH 7.2, 25 °C, SD in parentheses, read-out: Kd", "result": 3.8, "unit": "µM"}, {"measurement": "%High-spin (percent of heme iron in high-spin state)", "setting": "PbdA; on substrate binding", "result": ">99", "unit": "%"}, {"measurement": "Kd", "setting": "PbdA S237A [3]", "result": 29, "unit": "µM"}, {"measurement": "ΔG°", "setting": "PbdA S237A [3]; S237A variant, binding energy", "result": -6.2, "unit": "kcal/mol"}, {"measurement": "ΔΔG°", "setting": "PbdA S237A [3]; S237A variant, comparison of ΔG° of variant to wild type", "result": 1.2, "unit": "kcal/mol"}, {"measurement": "Coupling", "setting": "PbdA S87A [4]", "result": "45 (7) %"}, {"measurement": "Specific activity", "setting": "PbdA S87A [4]; O-demethylation", "result": "800 (200) U μg P450^-1"}, {"measurement": "NADH depletion rate", "setting": "PbdA S87A [4]; [7]", "result": "1700 (200) U mg P450^-1"}, {"measurement": "Rate of Aromatic turnover", "setting": "PbdA S87A [4]; [8]", "result": "800 (200) U mg P450^-1"}, {"measurement": "Kd", "setting": "PbdA S87A [5]", "result": 50, "unit": "µM"}, {"measurement": "ΔG°", "setting": "PbdA S87A [5]; S87A variant, binding energy", "result": -5.9, "unit": "kcal/mol"}, {"measurement": "ΔΔG°", "setting": "PbdA S87A [5]; S87A variant, comparison of ΔG° of variant to wild type", "result": 1.5, "unit": "kcal/mol"}, {"measurement": "Coupling", "setting": "PbdA S237A [6]", "result": "80 (2) %"}, {"measurement": "Specific activity", "setting": "PbdA S237A [6]; O-demethylation", "result": "2600 (400) U μg P450^-1"}, {"measurement": "NADH depletion rate", "setting": "PbdA S237A [6]; [7]", "result": "3600 (600) U mg P450^-1"}, {"measurement": "Rate of Aromatic turnover", "setting": "PbdA S237A [6]; [8]", "result": "2600 (400) U mg P450^-1"}]}
